Source: ChEMBL document CHEMBL1130972, “Sugar-substituted 2-azetidinones as cholesterol absorption inhibitors” (1998)

How the values were obtained:
[1] = system: Cricetinae gen. sp.; assay: Tested for inhibition of serum cholesterol absorption in cholesterol-fed hamsters at a oral dose of 10 mg/Kg/day; format: functional, hamster
[2] = system: Cricetinae gen. sp.; assay: Tested for inhibition of liver cholesterol esters absorption in cholesterol-fed hamsters at a oral dose of 10 mg/Kg/day; format: functional, Cricetulus griseus
[3] = system: Cricetinae gen. sp.; assay: Tested for inhibition of serum cholesterol absorption in cholesterol-fed hamsters at a oral dose of 8 mg/Kg/day; format: functional, Cricetulus griseus
[4] = system: Cricetinae gen. sp.; assay: Tested for inhibition of liver cholesterol esters absorption in cholesterol-fed hamsters at a oral dose of 8 mg/Kg/day; format: functional, Cricetulus griseus

Q: `COc1ccc(N2C(=O)[C@H](CCCc3ccccc3)[C@H]2c2ccc(O)cc2)cc1` was tested. Which Reduction [1] did it give?
A: -25%

Q: What about the Reduction [2] of the same compound?
A: -70%

Q: Which results are given for `COc1ccc([C@@H]2[C@@H](CCCc3ccccc3)C(=O)N2c2ccc(OC)cc2)cc1` [SCH-48461]?
A: Reduction [1]: -43%; Reduction [2]: -93%

Q: What does the source list for `COc1ccc(N2C(=O)[C@H](CCCc3ccccc3)[C@H]2c2ccc(O[C@@H]3O[C@H](C(=O)O)[C@@H](O)[C@H](O)[C@H]3O)cc2)cc1`?
A: Reduction [1]: -10%; Reduction [2]: -9%

Q: Which results are given for `COC(=O)[C@H]1O[C@@H](Oc2ccc([C@@H]3[C@@H](CCCc4ccccc4)C(=O)N3c3ccc(OC)cc3)cc2)[C@H](O)[C@@H](O)[C@@H]1O`?
A: Reduction [3]: -23%; Reduction [4]: -62%

Q: Which results are given for `COc1ccc(N2C(=O)[C@H](CCCc3ccccc3)[C@H]2c2ccc(OC[C@H]3O[C@H](OC)[C@H](O)[C@@H](O)[C@@H]3O)cc2)cc1`?
A: Reduction [1]: -10%; Reduction [2]: -48%

Q: With `COc1ccc(N2C(=O)[C@H](CCCc3ccccc3)[C@H]2c2ccc(O[C@@H]3O[C@H](CO)[C@@H](O)[C@H](O)[C@H]3O)cc2)cc1` as the compound, how does the Reduction [1] read?
A: -29%

Q: What about the Reduction [2] of the same compound?
A: -86%

Q: Which Reduction [1] does the source give for `COc1ccc(N2C(=O)[C@H](CCCc3ccccc3)[C@H]2c2ccc(O[C@@H]3O[C@H](COCc4ccccc4)[C@@H](OCc4ccccc4)[C@H](OCc4ccccc4)[C@H]3OCc3ccccc3)cc2)cc1` here?
A: -9%

Q: What about the Reduction [2] of the same compound?
A: -21%
